Earlier results as cited in patent US11026985B2, “Methods for removing contaminants from plant-derived pharmaceuticals” (priority 2018, dated 2021).

System: not given
Conditions: permissible limit in Cannabis, State of Oregon

| Compound | Action Level (ppm) |
| --- | --- |
| Cc1c(COC(=O)[C@@H]2[C@H](/C=C(\Cl)C(F)(F)F)C2(C)C)cccc1-c1ccccc1 (racemic) [Bifenthrin] | 0.2 ppm |
| COP(=O)(NC(C)=O)SC (stereo not shown) [Acephate] | 0.4 ppm |
| CCCCCCCCCCCCC1=C(OC(C)=O)C(=O)c2ccccc2C1=O [Acequinocyl] | 2 ppm |
| C/C(=N\C#N)N(C)Cc1ccc(Cl)nc1 [Acetamiprid] | 0.2 ppm |
| CNC(=O)O/N=C/C(C)(C)SC [Aldicarb] | 0.4 ppm |
| COc1ccc(-c2ccccc2)cc1NNC(=O)OC(C)C [Bifenazate] | 0.2 ppm |
| O=C(Nc1ccccc1-c1ccc(Cl)cc1)c1cccnc1Cl [Boscalid] | 0.4 ppm |
| CNC(=O)Oc1cccc2ccccc12 [Carbaryl] | 0.2 ppm |
| CNC(=O)Oc1cccc2c1OC(C)(C)C2 [Carbofuran] | 0.2 ppm |
| CNC(=O)c1cc(Cl)cc(C)c1NC(=O)c1cc(Br)nn1-c1ncccc1Cl [Chlorantraniliprole] | 0.2 ppm |
| CCOCn1c(-c2ccc(Cl)cc2)c(C#N)c(Br)c1C(F)(F)F [Chlorfenapyr] | 1 ppm |
| CC1(C)C(C=C(Cl)Cl)C1C(=O)OC(C#N)c1ccc(F)c(Oc2ccccc2)c1 (stereo not shown) [Cyfluthrin] | 1 ppm |
| COP(=O)(OC)OC=C(Cl)Cl [DDVP (Dichlorvos)] | 0.1 ppm |
| CCOP(=S)(OCC)Oc1cc(C)nc(C(C)C)n1 [Diazinon] | 0.2 ppm |
| CNC(=O)CSP(=S)(OC)OC [Dimethoate] | 0.2 ppm |
| CCOc1ccc(C(C)(C)COCc2cccc(Oc3ccccc3)c2)cc1 [Etofenprox] | 0.4 ppm |
| CCOc1cc(C(C)(C)C)ccc1C1COC(c2c(F)cccc2F)=N1 (stereo not shown) [Etoxazole] | 0.2 ppm |
| CCOC(=O)NCCOc1ccc(Oc2ccccc2)cc1 [Fenoxycarb] | 0.2 ppm |
| Cc1nn(C)c(Oc2ccccc2)c1/C=N/OCc1ccc(C(=O)OC(C)(C)C)cc1 [Fenpyroximate] | 0.4 ppm |
| N#Cc1nn(-c2c(Cl)cc(C(F)(F)F)cc2Cl)c(N)c1[S+]([O-])C(F)(F)F (stereo not shown) [Fipronil] | 0.4 ppm |
| N#CCNC(=O)c1cnccc1C(F)(F)F [Flonicamid] | 1 ppm |
| N#Cc1c[nH]cc1-c1cccc2c1OC(F)(F)O2 [Fludioxonil] | 0.4 ppm |
| CC1C(c2ccc(Cl)cc2)SC(=O)N1C(=O)NC1CCCCC1 (stereo not shown) [Hexythiazox] | 1 ppm |
| C=CCOC(Cn1ccnc1)c1ccc(Cl)cc1Cl (stereo not shown) [Imazalil] | 0.2 ppm |
| O=[N+]([O-])NC1=NCCN1Cc1ccc(Cl)nc1 [Imidacloprid] | 0.4 ppm |

| Compound | Action Level (ppm) |
| --- | --- |
| CO/N=C(/C(=O)OC)c1ccccc1COc1ccccc1C [Kresoxim-methyl, Kresoxim- methyl] | 0.4 ppm |
| CCCCC(CC)CN1C(=O)C2C3C=CC(C3)C2C1=O (stereo not shown) [MGK-264] | 0.2 ppm |
| CCOC(=O)CC(SP(=S)(OC)OC)C(=O)OCC (stereo not shown) [Malathion] | 0.2 ppm |
| COCC(=O)N(c1c(C)cccc1C)C(C)C(=O)OC (stereo not shown) [Metalaxyl] | 0.2 ppm |
| CNC(=O)Oc1cc(C)c(SC)c(C)c1 [Methiocarb] | 0.2 ppm |
| CNC(=O)ON=C(C)SC [Methomyl] | 0.4 ppm |
| CCCCC(C#N)(Cn1cncn1)c1ccc(Cl)cc1 (stereo not shown) [Myclobutanil] | 0.2 ppm |
| COP(=O)(OC)OC(Br)C(Cl)(Cl)Br (stereo not shown) [Naled] | 0.5 ppm |
| CNC(=O)O/N=C(\SC)C(=O)N(C)C [Oxamyl] | 1 ppm |
| CC1(C)C(C=C(Cl)Cl)C1C(=O)OCc1cccc(Oc2ccccc2)c1 (stereo not shown) [Permethrins] | 0.2 ppm |
| COP(=S)(OC)SCN1C(=O)c2ccccc2C1=O [Phosmet] | 0.2 ppm |
| C#CCC1=C(C)C(OC(=O)[C@@H]2[C@@H](C=C(C)C)C2(C)C)CC1=O (stereo partly shown) [Prallethrin] | 0.2 ppm |
| CCCC1COC(Cn2cncn2)(c2ccc(Cl)cc2Cl)O1 (stereo not shown) [Propiconazole] | 0.4 ppm |
| CNC(=O)Oc1ccccc1OC(C)C [Propoxur] | 0.2 ppm |
| CC(C)(C)c1ccc(CSc2cnn(C(C)(C)C)c(=O)c2Cl)cc1 [Pyridaben] | 0.2 ppm |
| Cc1cc(C)c(C2=C(OC(=O)CC(C)(C)C)C3(CCCC3)OC2=O)c(C)c1 [Spiromesifen] | 0.2 ppm |
| CCOC(=O)OC1=C(c2cc(C)ccc2C)C(=O)N[C@]12CC[C@@H](OC)CC2 [Spirotetramat] | 0.2 ppm |
| CCCN(CC)CC1COC2(CCC(C(C)(C)C)CC2)O1 (stereo not shown) [Spiroxamine] | 0.4 ppm |
| CC(C)(C)C(O)(CCc1ccc(Cl)cc1)Cn1cncn1 (stereo not shown) [Tebuconazole] | 0.4 ppm |
| N#C/N=C1\SCCN1Cc1ccc(Cl)nc1 [Thiacloprid] | 0.2 ppm |
| CN1COCN(Cc2cnc(Cl)s2)/C1=N\[N+](=O)[O-] [Thiamethoxam] | 0.2 ppm |
| CO/N=C(/C(=O)OC)c1ccccc1CO/N=C(\C)c1cccc(C(F)(F)F)c1 [Trifloxystrobin] | 0.2 ppm |
| Abamectin | 0.5 ppm |
| Spinosad | 0.2 ppm |

System: humans
Conditions: not given

| Compound | toxicity to humans |
| --- | --- |
| CCCCOCCOCCOCc1cc2c(cc1CCC)OCO2 [Piperonyl butoxide] | non-toxic |

System: not given
Conditions: not given

| Compound | Water Soluble? |
| --- | --- |
| C=C(C)[C@@H]1CCC(C)=C[C@H]1c1c(O)cc(CCC)cc1O [Cannabidivarin] | No |
| CCCCCc1cc(O)c(C/C=C(\C)CCC=C(C)C)c(O)c1 [Cannabigerol] | No |
